Experiments:
[1] = biological target: T1, D-amino acid oxidase (DAO; EC-1.4.3.3) from Rhodotorula gracilis ATCC 26217 (Rhodotorula toruloides, UniProt P80324); test: Substrate specificity (Km) of D-amino acid oxidase; type: biochemical; settings: compared with D-alanine, the specific substrate for this enzyme
T1 construct: production of Rhodotorula gracilis cells of high DAO enzyme content; made in house; host or cells: Rhodotorula gracilis ATCC 26217 (natural producer, aerobic fermentation)
T1 sequence (P80324 25-368): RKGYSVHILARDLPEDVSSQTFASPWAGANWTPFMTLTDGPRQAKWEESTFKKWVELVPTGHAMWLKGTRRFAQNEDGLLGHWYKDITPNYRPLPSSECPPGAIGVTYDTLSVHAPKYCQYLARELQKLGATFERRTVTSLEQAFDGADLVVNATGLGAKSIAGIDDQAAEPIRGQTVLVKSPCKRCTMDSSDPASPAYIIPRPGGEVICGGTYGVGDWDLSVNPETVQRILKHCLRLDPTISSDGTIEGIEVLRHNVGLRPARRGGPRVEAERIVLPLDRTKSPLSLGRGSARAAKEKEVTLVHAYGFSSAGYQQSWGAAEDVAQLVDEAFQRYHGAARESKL
Protocol: The activity of the D-amino acid oxidase enzyme is evaluated by measuring the H2 O2 quantity evolved on reacting the enzyme on a substrate of D-alanine in 100 mM phosphate buffer at pH 7.5 saturated with oxygen at 37° C.
The H2 O2 is determined kinetically using a peroxidase-based reactant, 4-aminophenazone and 2,4-dichlorophenolsulphonate by the modified Trinder reaction (J. Clin. Path. 22, 246, 1969). The red colour which forms (quinonimine) is proportional to the hydrogen peroxide evolved in the test and is measured spectrophotometrically at 510 nm.
One unit of D-amino acid oxidase is that quantity of enzyme (free or immobilized) which under the conditions used in the method produces one μmole of H2 O2 per minute.

[2] = biological target: T1, D-amino acid oxidase (DAO; EC-1.4.3.3) from Rhodotorula gracilis ATCC 26217; test: Dissociation constant of the FAD cofactor from D-amino acid oxidase; type: binding; settings: read-out: dissociation constant (bond with the FAD)

SMILES	Km [1]	Kd [2]
CC(=O)OCC1=C(C(=O)O)N2C(=O)[C@@H](NC(=O)CCC[C@@H](N)C(=O)O)[C@H]2SC1 [Cephalosporin C]	very similar to those encountered for D-alanine	
Cc1cc2nc3c(=O)[nH]c(=O)nc-3n(C[C@H](O)[C@H](O)[C@H](O)COP(=O)(O)OP(=O)(O)OC[C@H]3O[C@@H](n4cnc5c(N)ncnc54)[C@H](O)[C@@H]3O)c2cc1C [FAD]		0.022 µM

Source: patent publication US5424196A, “Enzymatic process for preparing 7-aminocephalosporanic acid and derivatives” (Antibioticos S.p.A., priority 1990, dated 1995)
